Assays:
Assay type in all cases: cell-based
[1] = tested on: HCC827 human NSCLC adenocarcinoma cells (mutant ERBB1, deletion of E746-A759 in exon 19); assay: Cell proliferation assay, HCC827; conditions: for Ratio (Wild-type ERBB1/Mutant ERBB1) HEKn/HCC827: GI50 ratio HEKn/HCC827; for GI50: Homo sapiens, HCC827 cells, 72 hrs; for Ratio (Wild-type ERBB1/Mutant ERBB1) A431/HCC827: GI50 ratio A431/HCC827
Method: (§1) The biological activity of a test compound was determined using cell proliferation assays. The activity against wild-type ERBB 1 was determined using A431 human epidermoid carcinoma cells (ATCC) and human epidermal keratinocytes, neonatal, or HEKn cells (ATCC).
(§2) A431 cells were grown in DMEM (Invitrogen) supplemented with 10% FBS (Lonza), 1% penicillin-streptomycin, and 2 mM glutamine (Invitrogen). HEKn cells were grown in EPILIFE® (Invitrogen) supplemented with HKGS (Invitrogen). HCC827 and H1975 were cultured in RPMI1640 supplemented with 10% FBS (Lonza), 1% penicillin-streptomycin, and 2 mM glutamine (Invitrogen). Cells were maintained and propagated at 37° C. and 5% CO2 in a humidified cell culture incubator. Aliquots of cells from early passages were preserved for liquid nitrogen storage. Frozen vials of cells were thawed at 37° C. water bath. Cells were spun to remove freezing medium. The newly revived frozen cells were adapted in culture for 10 days before used for compound testing. Cells used in the assay were less than 20 subculture passages or 3 months in culture.
(§3) The test compounds were dissolved in dimethylsulfoxide (DMSO) and stored at -20° C. before testing. […] The cells were placed in a culture incubator overnight. Next day, test compounds in DMSO were added to the cells and placed back in the culture incubator for 72 hrs. In the meantime, the cell numbers at time zero of the compound treatment (T0) was measured by ENERCOUNT® (Codex BioSolutions). At the end of the compound treatment, the cell numbers were again measured by EnerCount as T72 values. The untreated controls (Ctrl) were cell numbers recorded from the 0.1% DMSO treatment. The percent growth inhibition by the test compound was calculated by the formula: (1- (T72-T0)/(Ctrl-T0)) x 100.
(§4) The results are summarized in Tables 1 and 2, wherein A represents a value no greater than 500 nM, B represents a value greater than 500 nM but no greater than 1 µM, C represents a value greater than 1 µM but no greater than 5 µM, and D represents a value greater than 5 µM; and wherein A′ represents a ratio of greater than 10, B′ represents a ratio of no greater than 10 but no less than 5, C′ represents a ratio of no greater than 5 but no less than 2, and D′ represents a ratio of no greater than 2.

[2] = tested on: H1975 human NSCLC adenocarcinoma cells (drug-resistant mutant ERBB1, T790M in-cis with L858R); assay: Cell proliferation assay, H1975; conditions: for Ratio (Wild-type ERBB1/Mutant ERBB1) HEKn/H1975: GI50 ratio HEKn/H1975; for Ratio (Wild-type ERBB1/Mutant ERBB1) A431/H1975: GI50 ratio A431/H1975; for GI50: Homo sapiens, NCI-H1975, H1975 cells, 72 hrs
Method: as §1, §2, §3, §4

[3] = tested on: human epidermal keratinocytes, neonatal, or HEKn cells (wild-type ERBB1); assay: Cell proliferation assay, HEKn; conditions: Keratinocyte, 72 hrs
Method: as §1, §2, §3, §4

[4] = tested on: A431 human epidermoid carcinoma cells (wild-type ERBB1); assay: Cell proliferation assay, A431; conditions: A-431, 72 hrs
Method: as §1, §2, §3, §4

[5] = numeric values, reference compounds

| Structure (SMILES) | Ratio (Wild-type ERBB1/Mutant ERBB1) HEKn/HCC827 [1] | GI50 [1, 5] [nM] | Ratio (Wild-type ERBB1/Mutant ERBB1) HEKn/H1975 [2] | GI50 [3, 5] [nM] | GI50 [4] [nM] | Ratio (Wild-type ERBB1/Mutant ERBB1) A431/HCC827 [1] | GI50 [1] [nM] | Ratio (Wild-type ERBB1/Mutant ERBB1) A431/H1975 [2] | GI50 [2] [nM] | GI50 [3] [nM] |
| --- | --- | --- | --- | --- | --- | --- | --- | --- | --- | --- |
| C=CC(=O)Nc1cccc(Nc2nc(Nc3ccc(N4CCN(C(C)=O)CC4)cc3OC)ncc2C(F)(F)F)c1 [CO-1686] | A′ (A′ represents a ratio of greater than 10) | 32 | A′ (A′ represents a ratio of greater than 10) | 2500 | – | – | – | – | – | – |
| C=CC(=O)N1CCCC[C@@H](n2c(NC(=O)c3ccnc(C)c3)nc3cccc(OC4CCN(CC)CC4)c32)C1 [Compound A1, (R)-N-(1-(1-Acryloylazepan-3-yl)-7-((1-ethylpiperidin-4-yl)oxy)-1H-benzo[d]imidazol-2-yl)-2-methylisonicotinamide] | A′ (A′ represents a ratio of greater than 10) | – | A′ (A′ represents a ratio of greater than 10) | – | < 500 | A′ (A′ represents a ratio of greater than 10) | < 500 | A′ (A′ represents a ratio of greater than 10) | < 500 | 1000 to 5000 |
| C=CC(=O)N1CCC(Oc2cccc3nc(NC(=O)c4ccnc(C)c4)n([C@@H]4CCCCN(C(=O)C=C)C4)c23)CC1 [Compound A3, (R)-N-(1-(1-acryloylazepan-3-yl)-7-((1-acryloylpiperidin-4-yl)oxy)-1H-benzo[d]imidazol-2-yl)-2-methylisonicotinamide] | A′ (A′ represents a ratio of greater than 10) | – | A′ (A′ represents a ratio of greater than 10) | – | > 5000 | A′ (A′ represents a ratio of greater than 10) | < 500 | B′ (B′ represents a ratio of no greater than 10 but no less than 5) | < 500 | 1000 to 5000 |
| C=CC(=O)N1CCCC[C@@H](n2c(NC(=O)c3ccnc(C)c3)nc3cc(OC(F)(F)F)cc(Cl)c32)C1 [Compound A4, (R)-N-(1-(1-Acryloylazepan-3-yl)-7-chloro-5-(trifluoromethoxy)-1H-benzo[d]imidazol-2-yl)-2-methylisonicotinamide] | A′ (A′ represents a ratio of greater than 10) | – | C′ (C′ represents a ratio of no greater than 5 but no less than 2) | – | 1000 to 5000 | A′ (A′ represents a ratio of greater than 10) | < 500 | C′ (C′ represents a ratio of no greater than 5 but no less than 2) | < 500 | 1000 to 5000 |
| Cc1cc(C(=O)Nc2nc3cc(OC(F)(F)F)cc(Cl)c3n2[C@@H]2CCCCN(C(=O)/C=C/CN(C)C)C2)ccn1 [Compound A5, (R,E)-N-(7-Chloro-1-(1-(4-(dimethylamino)but-2-enoyl)azepan-3-yl)-5-(trifluoromethoxy)-1H-benzo[d]imidazol-2-yl)-2-methylisonicotinamide] | A′ (A′ represents a ratio of greater than 10) | – | A′ (A′ represents a ratio of greater than 10) | – | 1000 to 5000 | A′ (A′ represents a ratio of greater than 10) | < 500 | C′ (C′ represents a ratio of no greater than 5 but no less than 2) | < 500 | 1000 to 5000 |
| C=CC(=O)N1CCCC[C@@H](n2c(NC(=O)c3ccnc(C(F)(F)F)c3)nc3ccc4c(c32)OCCO4)C1 [Compound B1-A, (R)-N-(1-(1-acryloylazepan-3-yl)-7,8-dihydro-1H-[1,4]dioxino[2′,3′:3,4]benzo[1,2-d]imidazol-2-yl)-2-(trifluoromethyl)isonicotinamide] | – | – | – | – | 1000 to 5000 | – | < 500 | – | < 500 | > 5000 |
| C=CC(=O)N1CCCC[C@@H](n2c(NC(=O)c3ccnc(C)c3)nc3ccc4c(c32)OCCO4)C1 [Compound C1-A, (R)-N-(1-(1-acryloylazepan-3-yl)-7,8-dihydro-1H-[1,4]dioxino[2′,3′:3,4]benzo[1,2-d]imidazol-2-yl)-2-methylisonicotinamide] | – | – | – | – | 1000 to 5000 | – | < 500 | – | < 500 | 1000 to 5000 |
| C=CC(=O)N1CCCC[C@@H](n2c(NC(=O)c3ccnc(OC)c3)nc3ccc4c(c32)OCCO4)C1 [Compound C2-A, (R)-N-(1-(1-acryloylazepan-3-yl)-7,8-dihydro-1H-[1,4]dioxino[2′,3′:3,4]benzo[1,2-d]imidazol-2-yl)-2-methoxyisonicotinamide] | – | – | – | – | 1000 to 5000 | – | < 500 | – | < 500 | 1000 to 5000 |

Source: patent US20230271938A1, “BENZIMIDAZOLES FOR USE IN THE TREATMENT OF CANCER AND INFLAMMATORY DISEASES” (Capella Therapeutics, Inc., priority 2015, published 2023)
